# From patent EP1561465A2, “Methods of use of fluoroquinolone compounds against bacteria” (LG Life Sciences, Ltd., priority 1999, dated 2001)
# Where two headings read alike, the source gives them in different places.
# Key:
# Aeromonas spp. = assay: MIC by agar dilution (NCCLS M7-A4), 288 enteropathogenic isolates, gemifloxacin and 15 other antimicrobials; format: cell-based; settings: for MIC (mg/L) Range / MIC / % Susceptible / MIC (mg/L) 50% / MIC (mg/L) 90%: Aeromonas spp. N= 16
# Yersinia enterocolitica = assay: as above; format: cell-based; settings: for MIC / % Susceptible / MIC (mg/L) 50% / MIC (mg/L) 90% / MIC (mg/L) Range: Yersinia enterocolitica N= 22
# Salmonella spp. = assay: as above; format: cell-based; settings: for MIC (mg/L) Range / % Susceptible / MIC (mg/L) 50% / MIC (mg/L) 90%: Salmonella spp. N= 106; for susceptible isolates: breakpoints; for MIC: Salmonella
# Hafnia alvei = assay: as above; format: cell-based; settings: for MIC / % Susceptible / MIC (mg/L) 50% / MIC (mg/L) 90% / MIC (mg/L) Range: Hafnia alvei N= 32
# Shigella spp. = assay: as above; format: cell-based; settings: for susceptible isolates: breakpoints
# Experimental: [A. hydrophila (12), and A. sobria (4)], and 91 Campylobacter jejuni. […] The strains were stored in skimmed-milk at -80 °C until studied.
# The plates were incubated aerobically at 35 °C for 24 h, except for Campylobacter jejuni, where a microaerophilic atmosphere was obtained by using Campy Pack (Becton Dickinson, Cockeysville, MD, USA), and incubation was for 48 h. All organisms were tested with an inoculum of ≅ 10^4 cfu/spot. MICs were defined as the lower antibiotic concentration with no visible growth.
# Campylobacter jejuni = assay: as above; settings: for MIC (mg/L) Range / % Susceptible / MIC (mg/L) 50% / MIC (mg/L) 90%: Campylobacter jejuni N= 91
# Enterobacter spp. = assay: MIC by agar dilution (NCCLS), 322 nosocomial Gram negative isolates, Athens 1998; format: cell-based
# Streptococcus pneumoniae = assay: MIC by E-test (broth microdilution for gemifloxacin), 107 pneumococcal carrier isolates, Athens 1998; format: cell-based; settings: Streptococcus pneumoniae, E-test; for MIC50: read-out: MIC50; for MIC90: read-out: MIC90
# Experimental: Susceptibility testing was performed by agar dilution or epsilometer method (E-test), as recommended by the NCCLS. […] The susceptibility profiles of the strains were assessed using the Epsilometer method (E-test). The isolates were subdivided into two groups according to their penicillin susceptibility patterns (penicillin-susceptible and penicillin-intermediate.
# Staphylococcus aureus = assay: MIC by agar macrodilution (NCCLS), 373 Gram positive isolates, Athens 1998; format: cell-based; settings: Methicillin-susceptible Staphylococcus aureus (n = 85)
# [1] = 24 h, read-out: MIC (mg/L) Range
# [2] = read-out: MIC (mg/L) 50%, Salmonella spp. N= 106
# [3] = read-out: MIC (mg/L) 90%, Salmonella spp. N= 106
# [4] = read-out: MIC (mg/L) 50%, Shigella spp. N= 21
# [5] = read-out: MIC (mg/L) 90%, Shigella spp. N= 21
# [6] = Campylobacter jejuni, read-out: MIC (mg/L) 50%
# [7] = Campylobacter jejuni, read-out: MIC (mg/L) 90%
# [8] = Penicillin-intermediate S. pneumoniae (n = 24)
# [9] = Penicillin-susceptible S. pneumoniae (n = 107)
molecule,measurement,setting,value
"CO/N=C(\C(=O)N[C@@H]1C(=O)N2C(C(=O)O)=C(COC(C)=O)CS[C@H]12)c1csc(N)n1 [Cefotaxime, cefotaxime]",MIC (mg/L) Range,Aeromonas spp.,≤0.015 to 0.12 mg/L
same,susceptible isolates,"Aeromonas spp.; Aeromonas spp., breakpoints",100%
same,MIC,Aeromonas spp.; read-out: MIC (mg/L) 50%,0.03 mg/L
same,MIC,Aeromonas spp.; read-out: MIC (mg/L) 90%,0.12 mg/L
same,MIC,Yersinia enterocolitica; [1],0.06 to 0.12 mg/L
same,susceptible isolates,"Yersinia enterocolitica; Yersinia enterocolitica, breakpoints",100%
same,MIC,Yersinia enterocolitica; read-out: MIC (mg/L) 50%,0.06 mg/L
same,MIC,Yersinia enterocolitica; read-out: MIC (mg/L) 90%,0.06 mg/L
same,MIC (mg/L) Range,Salmonella spp.,0.06 to 0.5 mg/L
same,susceptible isolates,Salmonella spp.; Salmonella spp.,100%
same,MIC,Salmonella spp.; [2],0.12 mg/L
same,MIC,Salmonella spp.; [3],0.12 mg/L
same,MIC,Hafnia alvei; [1],0.12 to 0.5 mg/L
same,susceptible isolates,"Hafnia alvei; Hafnia alvei, breakpoints",100%
same,MIC,Hafnia alvei; read-out: MIC (mg/L) 50%,0.25 mg/L
same,MIC,Hafnia alvei; read-out: MIC (mg/L) 90%,0.5 mg/L
same,MIC,"Shigella spp.; 24 h, Shigella spp. N= 21, read-out: MIC (mg/L) Range",0.015 to 0.03 mg/L
same,susceptible isolates,Shigella spp.; Shigella spp.,100%
same,MIC,Shigella spp.; [4],≤ 0.015 mg/L
same,MIC,Shigella spp.; [5],0.03 mg/L
same,susceptible isolates,"Campylobacter jejuni; C. jejuni, breakpoints",57%
same,MIC (mg/L) Range,Campylobacter jejuni,2 to 32 mg/L
same,MIC,Campylobacter jejuni; [6],8 mg/L
same,MIC,Campylobacter jejuni; [7],16 mg/L
CC(C)(O/N=C(\C(=O)N[C@@H]1C(=O)N2C(C(=O)[O-])=C(C[n+]3ccccc3)CS[C@H]12)c1csc(N)n1)C(=O)O [Cetfazidime],MIC50,Enterobacter spp.; Enterobacter,1 µg/mL
same,MIC90,Enterobacter spp.; Enterobacter,> 64 µg/mL
same,MIC distribution (µg/ml) 0.06,Enterobacter spp.; {},1
same,MIC distribution (µg/ml) 0.25,Enterobacter spp.; {},16
same,MIC distribution (µg/ml) 0.5,Enterobacter spp.; {},3
same,MIC distribution (µg/ml) 1,Enterobacter spp.; {},2
same,MIC distribution (µg/ml) 2,Enterobacter spp.; {},1
same,MIC distribution (µg/ml) 4,Enterobacter spp.; {},0
same,MIC distribution (µg/ml) 8,Enterobacter spp.; {},2
same,MIC distribution (µg/ml) 16,Enterobacter spp.; {},6
same,MIC distribution (μg/ml) 32,Enterobacter spp.; {},3
same,MIC distribution (μg/ml) 64,Enterobacter spp.; {},2
CC[C@H]1OC(=O)[C@H](C)[C@@H](O[C@H]2C[C@@](C)(OC)[C@@H](O)[C@H](C)O2)[C@H](C)[C@@H](O[C@@H]2O[C@H](C)C[C@H](N(C)C)[C@H]2O)[C@](C)(OC)C[C@@H](C)C(=O)[C@H](C)[C@@H](O)[C@]1(C)O [Clarithromycin],MIC50,Streptococcus pneumoniae; [8],0.094 µg/mL
same,MIC90,Streptococcus pneumoniae; [8],≥ 256 µg/mL
same,MIC50,Streptococcus pneumoniae; [9],0.094 µg/mL
same,MIC90,Streptococcus pneumoniae; [9],0.38 µg/mL
same,MIC50,Staphylococcus aureus; read-out: MIC50,0.25 µg/mL
same,MIC90,Staphylococcus aureus; read-out: MIC90,1 µg/mL
"C[C@H]1c2cccc(O)c2C(=O)C2=C(O)[C@]3(O)C(=O)C(C(N)=O)=C(O)[C@@H](N(C)C)[C@@H]3[C@@H](O)[C@@H]21 [Doxycycline, doxycycline]",MIC (mg/L) Range,Aeromonas spp.,0.25 to 4 mg/L
same,MIC,Aeromonas spp.; read-out: MIC (mg/L) 50%,0.5 mg/L
same,MIC,Aeromonas spp.; read-out: MIC (mg/L) 90%,2 mg/L
same,MIC,Yersinia enterocolitica; [1],0.25 to 8 mg/L
same,Rates of non-susceptible microorganisms,Yersinia enterocolitica; Yersinia enterocolitica,5%
same,MIC,Yersinia enterocolitica; read-out: MIC (mg/L) 50%,1 mg/L
same,MIC,Yersinia enterocolitica; read-out: MIC (mg/L) 90%,2 mg/L
same,Rates of non-susceptible microorganisms,Salmonella spp.; Salmonella spp.,22%
same,MIC (mg/L) Range,Salmonella spp.,1 to 128 mg/L
same,MIC,Salmonella spp.; [2],2 mg/L
same,MIC,Salmonella spp.; [3],16 mg/L
same,MIC,Hafnia alvei; [1],1 to 16 mg/L
same,Rates of non-susceptible microorganisms,Hafnia alvei; Hafnia alvei,22%
same,MIC,Hafnia alvei; read-out: MIC (mg/L) 50%,2 mg/L
same,MIC,Hafnia alvei; read-out: MIC (mg/L) 90%,8 mg/L
same,Rates of non-susceptible microorganisms,Shigella spp.; Shigella spp.,43%
same,MIC,"Shigella spp.; Shigella, 24 h, read-out: MIC (mg/L) Range",0.5 to 32 mg/L
same,MIC,"Shigella spp.; Shigella, read-out: MIC (mg/L) 50%",16 mg/L
same,MIC,"Shigella spp.; Shigella, read-out: MIC (mg/L) 90%",32 mg/L
same,Rates of non-susceptible microorganisms,Campylobacter jejuni; Campylobacter jejuni,40%
same,MIC (mg/L) Range,Campylobacter jejuni,0.06 to 64 mg/L
same,MIC,Campylobacter jejuni; [6],16 mg/L
same,MIC,Campylobacter jejuni; [7],32 mg/L
CC1(C)S[C@@H]2[C@H](NC(=O)[C@H](N)c3ccccc3)C(=O)N2[C@H]1C(=O)O [ampicillin],susceptibility of isolates,Aeromonas spp.; Aeromonas spp.,non susceptible
same,MIC,Aeromonas spp.; read-out: MIC (mg/L) 50%,> 128 mg/L
same,MIC,Aeromonas spp.; read-out: MIC (mg/L) 90%,> 128 mg/L
same,MIC,Yersinia enterocolitica; [1],32 to 64 mg/L
same,susceptibility of isolates,Yersinia enterocolitica; Yersinia enterocolitica,non susceptible
same,MIC,Yersinia enterocolitica; read-out: MIC (mg/L) 50%,32 mg/L
same,MIC,Yersinia enterocolitica; read-out: MIC (mg/L) 90%,64 mg/L
same,Rates of non-susceptible microorganisms,Salmonella spp.; Salmonella spp.,23%
same,susceptible isolates,Salmonella spp.; Salmonella spp.,77%
same,MIC,Salmonella spp.; [2],4 mg/L
same,MIC,Salmonella spp.; [3],> 128 mg/L
same,MIC,Hafnia alvei; [1],2 to 64 mg/L
same,MIC,Hafnia alvei; read-out: MIC (mg/L) 50%,16 mg/L
same,MIC,Hafnia alvei; read-out: MIC (mg/L) 90%,64 mg/L
same,susceptible isolates,Shigella spp.; Shigella spp.,43%
same,MIC,Shigella spp.; [4],64 mg/L
same,MIC,Shigella spp.; [5],> 128 mg/L
same,MIC,Campylobacter jejuni; [6],8 mg/L
same,MIC,Campylobacter jejuni; [7],32 mg/L
colistin,% Susceptible,Aeromonas spp.,81%
same,MIC (mg/L) 50%,Aeromonas spp.,2 mg/L
same,MIC (mg/L) 90%,Aeromonas spp.,4 mg/L
same,MIC (mg/L) Range,Aeromonas spp.,0.25 to 32 mg/L
same,% Susceptible,Yersinia enterocolitica,100%
same,MIC (mg/L) 50%,Yersinia enterocolitica,1 mg/L
same,MIC (mg/L) 90%,Yersinia enterocolitica,1 mg/L
same,MIC (mg/L) Range,Yersinia enterocolitica,0.5 to 1 mg/L
same,% Susceptible,Salmonella spp.,32%
same,MIC (mg/L) 50%,Salmonella spp.,8 mg/L
same,MIC (mg/L) 90%,Salmonella spp.,8 mg/L
same,susceptible isolates,Salmonella spp.; Salmonella spp.,32%
same,% Susceptible,Hafnia alvei,6%
same,MIC (mg/L) 50%,Hafnia alvei,8 mg/L
same,MIC (mg/L) 90%,Hafnia alvei,16 mg/L
same,MIC (mg/L) Range,Hafnia alvei,0.5 to 16 mg/L
same,% Susceptible,Shigella spp.; Shigella spp. N= 21,100%
same,MIC (mg/L) 50%,Shigella spp.; Shigella spp. N= 21,0.25 mg/L
same,MIC (mg/L) 90%,Shigella spp.; Shigella spp. N= 21,0.25 mg/L
same,MIC (mg/L) Range,Shigella spp.; Shigella spp. N= 21,0.25 mg/L
same,% Susceptible,Campylobacter jejuni,3%
same,MIC (mg/L) 50%,Campylobacter jejuni,4 mg/L
same,MIC (mg/L) 90%,Campylobacter jejuni,8 mg/L
same,MIC (mg/L) Range,Campylobacter jejuni,1 to 32 mg/L
gentamicin,% Susceptible,Aeromonas spp.,100%
same,MIC (mg/L) 50%,Aeromonas spp.,0.5 mg/L
same,MIC (mg/L) 90%,Aeromonas spp.,1 mg/L
same,MIC (mg/L) Range,Aeromonas spp.,0.25 to 1 mg/L
same,% Susceptible,Yersinia enterocolitica,100%
same,MIC (mg/L) 50%,Yersinia enterocolitica,1 mg/L
same,MIC (mg/L) 90%,Yersinia enterocolitica,1 mg/L
same,MIC (mg/L) Range,Yersinia enterocolitica,0.5 to 1 mg/L
same,isolates being resistant,Salmonella spp.; Salmonella spp.,4%
same,% Susceptible,Salmonella spp.,96%
same,MIC (mg/L) 50%,Salmonella spp.,0.25 mg/L
same,MIC (mg/L) 90%,Salmonella spp.,0.5 mg/L
same,MIC (mg/L) Range,Salmonella spp.,0.12 to 128 mg/L
same,% Susceptible,Hafnia alvei,100%
same,MIC (mg/L) 50%,Hafnia alvei,0.25 mg/L
same,MIC (mg/L) 90%,Hafnia alvei,0.5 mg/L
same,MIC (mg/L) Range,Hafnia alvei,0.25 to 0.5 mg/L
same,% Susceptible,Shigella spp.; Shigella spp. N= 21,100%
same,MIC (mg/L) 50%,Shigella spp.; Shigella spp. N= 21,1 mg/L
same,MIC (mg/L) 90%,Shigella spp.; Shigella spp. N= 21,1 mg/L
same,MIC (mg/L) Range,Shigella spp.; Shigella spp. N= 21,0.5 to 1 mg/L
same,% Susceptible,Campylobacter jejuni,100%
same,MIC (mg/L) 50%,Campylobacter jejuni,0.25 mg/L
same,MIC (mg/L) 90%,Campylobacter jejuni,0.5 mg/L
same,MIC (mg/L) Range,Campylobacter jejuni,0.12 to 1 mg/L
